# Experimental data: article PMC10887108, “Novel Brain-Penetrant, Small-Molecule Tubulin Destabilizers for the Treatment of Glioblastoma” (Biomedicines, 2024)
# How the values were obtained:
# [1] = Plasma protein binding (dialysis); assay type: in vitro ADME; details: range over mouse, rat, and human plasma
# Method: Compounds (5 µM/0.2% DMSO) were tested in dialysis chambers. Blank dialysis buffer was added to the receiver side (100 μL), and plasma (100 μL) with test and reference compounds was added to the donor side of the chamber and incubated at 37 °C on an orbital shaker. Plasma was precipitated at 0 and 5 h. Aliquots from donor and receiver sides of the dialysis apparatus (25 μL) were added to sample preparation plates and mixed with aliquots of the opposite matrix (25 μL, blank buffer to plasma and vice versa). Samples were quenched with stop solution (400 μL) containing internal standard, vortexed at 600 rpm for 10 min, and centrifuged at 4000 rpm for 10 min. Supernatants were analyzed by LC-MS. Quinidine and warfarin were used as positive controls.
# [2] = test system: GBM12, GBM15, GBM39 and GBM43 patient-derived GB cell lines; assay: CellTiter-Glo viability assay, four patient-derived GB cell lines; assay type: cell-based; details: Homo sapiens, 144 h, read-out: IC50 cell viability, range over four patient-derived GB cell lines
# Method: (§1) Short-term cultures of patient-derived cells GBM12, GBM15, GBM39 and GBM43 (used with permission Mayo Foundation) were seeded (1000 cells/well) in solid white Corning 384-well plates (Corning, NY, USA) and cultured overnight. Cells were treated with DMSO or RGN3067 in a 13-point dose response with a 1:3 serial dilution from an initial concentration of 100 μM. After 144 h, cell viability was measured using CellTiter-Glo (Promega, Madison, WI, USA). Data were normalized to DMSO control, and absolute IC50 values were calculated using GraphPad Prism 10 (San Diego, CA, USA).
# [3] = test system: GBM12 patient-derived GB cells; assay: CellTiter-Glo viability assay, patient-derived GBM12 cells; assay type: cell-based; details: Homo sapiens, GBM12, 144 h, read-out: IC50 cell viability
# Method: as §1
# [4] = Kinetic solubility in phosphate buffer; assay type: physicochemical; details: 100 mM phosphate buffer, 1% DMSO
# Method: Kinetic solubility was determined in phosphate buffer. The compound (4 µL, 10 mM DMSO) was added to the buffer (396 μL 100 mM phosphate buffer, final 1% DMSO) and shaken at 1000 rpm at RT for 1 h. Samples were filtered (Millipore MSSLBPC10; Burlington, MA, USA), the primary filtrate was discarded, and the subsequent filtrate was collected. The supernatant solution was diluted 10× with DMSO. Test samples (10 µL) and working standard curve samples were added to the stop solution (100 μL, containing internal standard) and water/0.1% FA (100 μL). Samples were analyzed by LC-MS/MS. Albendazole, propranolol, and 4,5-diphenylimidazole were used as positive controls.
# [5] = Metabolite profiling in cryopreserved hepatocytes; assay type: in vitro ADME; details: mouse, rat, dog, monkey, and human hepatocytes, 120 min
# Method: Metabolite profiling was carried out by WuXi DMPK (Nanjing, China). RGN3067 (10 μM) was profiled in CD-1 mice (BioIVT, Westbury, NY, USA), SD rats (BioIVT), beagle dogs (BioIVT), cynomolgus monkeys (Research Institute for Liver Diseases [RILD], Shanghai, China), and human cryopreserved hepatocytes (BioIVT). The positive control was 7-ethoxycoumarin (30 μM). Compounds were added to hepatocytes (400 µL, 1 × 10^6/mL), and reactions were carried out at 37 °C in 5% CO2/saturated humidity for 120 min. Reactions were stopped by the addition of ice-cold ACN (400 μL). Samples were shaken at 300 rpm for 10 min, then centrifuged at 13,000× g for 10 min. Supernatants were evaporated under a stream of N2. Residue from the RGN3067 incubation was reconstituted with ACN: H2O (200 μL, v:v, 3:7), followed by centrifugation at 14,000 rpm for 10 min, and the supernatant was used for qualitative and semi-quantitative analysis using LC-UV/HRMS. A Shimadzu UFLC-20A with autosampler was used for chromatographic separation. Detection and structure were determined using a Thermo Q-Extractive mass spectrometer in full MS/MS^2 scan mode and Xcalibur Data Acquisition and Interpretation Software v4.2.
# [6] = test system: HMC3 microglial cells (non-tumorigenic); assay: alamarBlue cell viability assay, HMC3; assay type: cell-based, human; details: HMC3, up to 10 μM
# Method: Cells (100 µL/well) were seeded in 96-well tissue culture plates (Greiner Bio-One 650090; Kremsmünster, Austria). The plating density (cells/well) for each cell line was as follows: LN-18 (3000), U87 (4000), and HMC3 (5000). After overnight incubation, compounds were added to the cells (50 µL at 3× concentration, final 0.1% DMSO), and plates were incubated for 72 h. Cell viability was assessed by the addition of 25 µL of alamarBlue for a final concentration of 100 µM final concentration (Resazurin redox reagent, Sigma-Aldrich R7017; St. Louis, MO, USA). After a 4 h incubation, fluorescence was read on a CLARIOstar Plus plate reader (BMG Labtech, Ortenberg, Germany) at EX 570/EM 590 nm.
# [7] = molecular target: T1, porcine tubulin (Sus scrofa, UniProt P02554); assay: Tubulin polymerization assay (fluorescent reporter); assay type: biochemical; details: compound 5 μM, porcine tubulin 20 μM, relative to DMSO
# T1 construct: purchased Cytoskeleton, Inc. BK011P
# Method: Tubulin polymerization was evaluated by monitoring the incorporation of a fluorescent reporter into MTs during polymerization. The tubulin polymerization assay kit (Cytoskeleton, Inc. BK011P; Denver, CO, USA) was used according to the manufacturer’s instructions. Briefly, the tubulin reaction mix was kept on ice until immediately prior to use.
# (A,B) Representative tubulin polymerization plots and data quantification. […] (C) Immunofluorescence staining of β-tubulin in U87 glioblastoma cells. […] Images were captured using an Operetta confocal microscope at 40× magnification. Scale bar, 10 μm. […] Data was collected with a BD FACS Canto II Flow Cytometer and analyzed using the BD FACSDiva software. (E) The percentage of cells in G1, S, and G2/M phases from the histograms in (D). Data are plotted as mean ± SD from at least three independent experiments. Analysis between groups in (B) was performed using a one-way ANOVA with Tukey’s multiple comparisons test.
# [8] = molecular target: T2, Porcine tubulin (colchicine binding site) (Sus scrofa, UniProt P02554); assay: Colchicine competitive binding assay (fluorescence); details: compound 50 µM, colchicine 10 μM, tubulin 20 μM
# T2 construct: purchased Cytoskeleton, Inc. T240; host or cells: brain tissue (purified)
compound,measurement,setting,value
CO[C@H]1C[C@@H](C(=O)NC(=O)Nc2ccc(Oc3ccc(Cl)cn3)c(C)c2)C1 [RGN3067],"fraction unbound at 5 h, 5 µM",[1],0.018 to 0.026
same,IC50,[2],148 to 616 nM
same,IC50,[3],148 nM
same,solubility kinetic at 1 h,[4],5.7 µM
same,number of metabolites detected and identified,[5],10
same,inhibition of cell viability,[6],does not significantly inhibit
same,reduction in tubulin polymerization (AUC),[7],49%
same,reduction of colchicine–tubulin fluorescence relative to control,[8],24%
